According to ChEMBL document CHEMBL1147510 (Bioorg Med Chem Lett, 2004):
The source made the active and inactive calls. No cut-off for these calls is given here.

Assays:
[1] = biological target: T1, Neuronal acetylcholine receptor subunit alpha-7 (Rattus norvegicus, UniProt Q05941); assay: Activation responses to that evoked by ACh at human Nicotinic acetylcholine receptor alpha-7 expressed in xenopus oocytes; format: cell-based, Oocyte
[2] = biological target: T2, Neuronal acetylcholine receptor; alpha4/beta2 (Homo sapiens, UniProt P17787+P43681); assay: Activation responses to that evoked by ACh at human Nicotinic acetylcholine receptor alpha4-beta2; format: protein-complex assay
[3] = biological target: T3, Neuronal acetylcholine receptor; alpha3/beta2 (Homo sapiens) (UniProt P17787+P32297); assay: Activation responses to that evoked by Nicotinic acetylcholine receptor alpha3-beta2 expressed in xenopus oocytes at 300 uM; format: cell-based; conditions: Oocyte
[4] = biological target: T4, Neuronal acetylcholine receptor; alpha3/beta4 (Homo sapiens, UniProt P30926+P32297); assay: Antagonism of ACh-evoked responses at human Nicotinic acetylcholine receptor alpha3-beta4 expressed in xenopus oocytes; format: functional, cell-based, Oocyte
[5] = biological target: T2, Neuronal acetylcholine receptor; alpha4/beta2; assay: Activation responses to that evoked by ACh at human Nicotinic acetylcholine receptor alpha4-beta2 expressed in xenopus oocytes at 300 uM; format: cell-based; conditions: Oocyte
[6] = biological target: T5, 5-hydroxytryptamine receptor 3A (Rattus norvegicus) (UniProt P35563); assay: Ability to block serotonin (30 uM)-evoked responses at rat 5HT3-alpha receptor expressed in xenopus oocytes; format: functional, cell-based; conditions: Oocyte
T5 sequence (whole entry): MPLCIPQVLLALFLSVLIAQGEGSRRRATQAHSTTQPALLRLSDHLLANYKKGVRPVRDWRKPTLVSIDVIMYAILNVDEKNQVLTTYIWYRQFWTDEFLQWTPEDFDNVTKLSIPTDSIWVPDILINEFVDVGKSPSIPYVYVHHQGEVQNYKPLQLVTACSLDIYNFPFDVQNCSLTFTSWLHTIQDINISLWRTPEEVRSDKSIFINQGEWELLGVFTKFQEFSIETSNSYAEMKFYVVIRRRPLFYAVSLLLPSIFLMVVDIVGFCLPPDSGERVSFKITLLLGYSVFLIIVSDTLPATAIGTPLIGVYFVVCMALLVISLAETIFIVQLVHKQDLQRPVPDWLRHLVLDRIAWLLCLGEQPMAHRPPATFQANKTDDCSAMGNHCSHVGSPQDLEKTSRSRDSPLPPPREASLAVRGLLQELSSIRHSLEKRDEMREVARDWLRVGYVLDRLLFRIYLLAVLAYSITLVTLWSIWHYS

Oocyte [7] = assay: Activation responses to that evoked by ACh at human Nicotinic acetylcholine receptor alpha-3-beta-2-alpha-5 expressed in xenopus oocytes at 100 uM; format: cell-based
[8] = biological target: T2, Neuronal acetylcholine receptor; alpha4/beta2; assay: Antagonism of ACh response at Nicotinic acetylcholine receptor alpha4-beta2 expressed in xenopus oocytes; format: functional, cell-based, Oocyte
[9] = biological target: T5, 5-hydroxytryptamine receptor 3A (Rattus norvegicus); assay: Effect on rat 5-hydroxytryptamine 3a receptor expressed in xenopus oocytes at concentration up to 100 uM; format: functional, cell-based; conditions: Oocyte
[10] = biological target: T3, Neuronal acetylcholine receptor; alpha3/beta2 (Homo sapiens); assay: Activation responses to that evoked by Nicotinic acetylcholine receptor alpha3-beta2 expressed in xenopus oocytes at 1 mM; format: cell-based; conditions: Oocyte
[11] = biological target: T4, Neuronal acetylcholine receptor; alpha3/beta4; assay: Activation responses to that evoked by ACh at human alpha3-beta4 receptor expressed in xenopus oocytes at 1 mM; format: cell-based; conditions: Oocyte
[12] = biological target: T3, Neuronal acetylcholine receptor; alpha3/beta2 (Homo sapiens); assay: Responses to that evoked by Nicotinic acetylcholine receptor alpha3-beta2 expressed in xenopus oocytes up to 1 mM; format: cell-based; conditions: Oocyte
Oocyte [13] = assay: Antagonism of ACh response at Nicotinic acetylcholine receptor alpha-3-beta-2-alpha-5 receptor expressed in xenopus oocytes up to 1 mM; format: functional, cell-based; conditions: Homo sapiens
[14] = biological target: T4, Neuronal acetylcholine receptor; alpha3/beta4; assay: Responses to that evoked by Nicotinic acetylcholine receptor alpha3-beta4 expressed in xenopus oocytes up to 1 mM; format: cell-based; conditions: Oocyte
[15] = biological target: T1, Neuronal acetylcholine receptor subunit alpha-7; assay: Inhibition of the response to ACh when coapplied with Nicotinic acetylcholine receptor alpha7
[16] = biological target: T2, Neuronal acetylcholine receptor; alpha4/beta2; assay: Responses to that evoked by ACh at human Nicotinic acetylcholine receptor alpha4-beta2 expressed in xenopus oocytes up to 1 mM; format: cell-based; conditions: Oocyte

T2 sequence (P17787 whole entry): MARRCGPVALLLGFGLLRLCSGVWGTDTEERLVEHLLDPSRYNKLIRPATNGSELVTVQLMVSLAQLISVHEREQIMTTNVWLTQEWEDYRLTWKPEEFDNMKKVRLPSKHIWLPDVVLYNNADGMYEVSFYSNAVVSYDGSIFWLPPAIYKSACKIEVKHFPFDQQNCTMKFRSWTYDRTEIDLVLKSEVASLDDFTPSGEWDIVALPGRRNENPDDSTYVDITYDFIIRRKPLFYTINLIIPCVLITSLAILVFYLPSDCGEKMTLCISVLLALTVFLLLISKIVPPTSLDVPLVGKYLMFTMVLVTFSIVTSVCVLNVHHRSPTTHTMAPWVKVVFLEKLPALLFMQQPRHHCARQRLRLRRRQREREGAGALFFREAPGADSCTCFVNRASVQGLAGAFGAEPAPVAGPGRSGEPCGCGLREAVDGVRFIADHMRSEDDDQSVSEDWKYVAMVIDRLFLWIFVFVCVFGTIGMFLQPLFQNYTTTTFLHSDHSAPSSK
T2 sequence (P43681 whole entry): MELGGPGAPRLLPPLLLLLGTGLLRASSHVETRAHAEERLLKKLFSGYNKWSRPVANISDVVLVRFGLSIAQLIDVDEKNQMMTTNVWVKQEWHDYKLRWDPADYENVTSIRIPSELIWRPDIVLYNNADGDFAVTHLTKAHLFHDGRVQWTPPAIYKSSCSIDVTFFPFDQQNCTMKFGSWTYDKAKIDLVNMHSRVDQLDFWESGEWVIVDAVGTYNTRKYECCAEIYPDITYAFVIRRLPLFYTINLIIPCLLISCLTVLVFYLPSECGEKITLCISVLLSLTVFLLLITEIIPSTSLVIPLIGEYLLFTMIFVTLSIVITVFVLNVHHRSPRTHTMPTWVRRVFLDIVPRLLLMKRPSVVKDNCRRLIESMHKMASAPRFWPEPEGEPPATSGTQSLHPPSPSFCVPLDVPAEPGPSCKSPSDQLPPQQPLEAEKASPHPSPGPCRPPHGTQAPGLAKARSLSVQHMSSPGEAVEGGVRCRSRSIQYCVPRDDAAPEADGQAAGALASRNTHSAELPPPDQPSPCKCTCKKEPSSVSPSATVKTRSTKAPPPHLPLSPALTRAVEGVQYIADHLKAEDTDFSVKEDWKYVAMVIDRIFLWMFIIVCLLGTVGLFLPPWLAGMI
T1 sequence (Q05941 whole entry): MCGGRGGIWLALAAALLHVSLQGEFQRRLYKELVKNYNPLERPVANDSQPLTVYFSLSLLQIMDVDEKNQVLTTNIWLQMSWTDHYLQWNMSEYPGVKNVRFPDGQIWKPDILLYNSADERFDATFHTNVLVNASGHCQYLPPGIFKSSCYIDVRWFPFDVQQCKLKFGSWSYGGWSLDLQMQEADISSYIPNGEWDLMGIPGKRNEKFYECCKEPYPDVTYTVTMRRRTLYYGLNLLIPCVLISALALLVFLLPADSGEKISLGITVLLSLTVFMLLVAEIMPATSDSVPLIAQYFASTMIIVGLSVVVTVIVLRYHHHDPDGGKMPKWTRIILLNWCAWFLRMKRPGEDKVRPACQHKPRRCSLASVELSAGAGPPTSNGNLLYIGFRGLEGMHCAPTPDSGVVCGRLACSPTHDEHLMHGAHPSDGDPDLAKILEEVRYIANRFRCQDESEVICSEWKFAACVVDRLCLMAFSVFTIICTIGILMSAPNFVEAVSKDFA
T4 sequence (P30926 whole entry): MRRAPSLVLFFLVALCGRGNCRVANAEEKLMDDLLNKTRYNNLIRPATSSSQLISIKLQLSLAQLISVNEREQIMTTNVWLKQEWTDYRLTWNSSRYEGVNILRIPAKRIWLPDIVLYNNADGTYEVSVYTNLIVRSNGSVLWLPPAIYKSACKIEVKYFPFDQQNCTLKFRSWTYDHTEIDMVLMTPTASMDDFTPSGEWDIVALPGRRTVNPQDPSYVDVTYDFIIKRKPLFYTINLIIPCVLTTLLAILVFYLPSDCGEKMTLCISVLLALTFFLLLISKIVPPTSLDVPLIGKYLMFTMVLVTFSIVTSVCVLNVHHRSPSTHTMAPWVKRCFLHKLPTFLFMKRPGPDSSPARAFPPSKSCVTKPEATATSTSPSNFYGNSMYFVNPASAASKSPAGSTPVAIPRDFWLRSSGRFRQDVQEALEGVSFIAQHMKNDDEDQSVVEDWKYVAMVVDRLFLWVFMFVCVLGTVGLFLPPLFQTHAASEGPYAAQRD
T4 sequence (P32297 whole entry): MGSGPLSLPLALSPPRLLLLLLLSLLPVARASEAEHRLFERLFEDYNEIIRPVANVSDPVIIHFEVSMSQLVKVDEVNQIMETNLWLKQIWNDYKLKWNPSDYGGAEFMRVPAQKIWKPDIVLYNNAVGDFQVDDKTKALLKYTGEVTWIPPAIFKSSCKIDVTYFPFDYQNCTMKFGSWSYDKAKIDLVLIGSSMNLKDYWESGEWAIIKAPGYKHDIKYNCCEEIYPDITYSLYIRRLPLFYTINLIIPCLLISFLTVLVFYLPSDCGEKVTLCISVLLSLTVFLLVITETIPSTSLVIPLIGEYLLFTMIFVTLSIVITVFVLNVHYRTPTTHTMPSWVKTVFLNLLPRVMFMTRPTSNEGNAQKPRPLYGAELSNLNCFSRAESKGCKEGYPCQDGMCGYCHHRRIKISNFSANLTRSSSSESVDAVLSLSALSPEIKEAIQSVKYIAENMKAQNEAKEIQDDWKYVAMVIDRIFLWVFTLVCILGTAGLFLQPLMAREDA

Row | SMILES | EC50 [1] [µM] | Activation [2] [%] | Activation [3] [%] | IC50 [4] [µM] | Activation [5] [%] | Effect [6] | Activation (Oocyte [7]) [%] | IC50 [8] [µM] | Effect [9] | Activation [10] [%] | Activation [11] | Effect [12] | Effect (Oocyte [13]) | Effect ([14]; filed as antagonist) | IC50 [15] [µM] | Effect ([16]; filed as antagonist) | Effect [14] | Effect [16]
1 | O=C1NC[C@@]2(CN3CCC2CC3)O1 | 0.38 | 2 | 1 | > 1000 | 1 | inactive | 3 | > 2000 | inactive | 2 | inactive |  |  |  |  |  |  | 
2 | Cc1nccn1CC1CCc2c(c3ccccc3n2C)C1=O (stereo not drawn) [ONDANSETRON] |  |  |  | 27 |  |  |  | 66 |  |  |  | inactive | inactive | Antagonist | 25 | Antagonist |  | 
3 | CN1[C@@H]2CC[C@H]1C[C@@H](OC(=O)c1c[nH]c3ccccc13)C2 [TROPISETRON] |  |  |  |  |  |  |  | 170 |  |  |  | inactive | inactive |  |  |  | inactive | inactive
